Data from US20030224522A1, “Methods for delivering nucleic acid molecules into cells and assessment thereof” (priority 2002, published 2003).

Legend:
[1] = test system: A9 cells; assay: Ultrasound mediated transfection of GFP chromosomes with Saint-2; format: cell-based, murine; settings: of the cells remaining on the glass
Description: A9 cells were grown at 37° C., 5% CO2, in DMEM with 4500 mg/l Glucose, with Pyridoxine/HCL, 10% Fetal Calf Serum, 10000 μg/ml Streptomycin and 10000 μg/ml Penicillin (GIBCO BRL, Paisley, UK). Between 2×10^5 and 5×10^5 cells were plated onto sterile glass slides in a 12 well plate 24 h before usage.
Cells were transfected with GFP chromosomes using the procedure of Example 6A except that CHO-KI medium was replaced with A9 medium.

[2] = test system: CHO-KI cells; assay: as above; format: cell-based
Description: CHO-KI cells were grown at 37°, 5% CO2, in CHO-S-SFM 2 Medium, (Gibco BRL, Paisley, UK). Between 2×10^5 and 5×10^5 cells were plated onto sterile glass slides in a 12 well plate 24 h before usage.
Transfection of the cells was performed as follows. The medium was removed from the cells, and the cells were washed twice with HBSS (Hanks balanced salt solution without Phenol Red (Gibco BRL, UK)) at 37° C. Then 500 μl HBSS at 37° C. was added per well, followed by 10 μl of the freshly prepared vesicle solution (prepared in Example 2) to yield a final concentration of 23.3 nmol/ml.
Alternatively, the medium was removed from the cells, and the cells were washed twice with HBSS. 500 μl HBSS/lipid solution at 37° C. was added to each well. The HBSS/lipid solution was prepared by adding 1 μl ethanolic lipid solution (prepared as described above) to 500 μHBSS under vigorous vortexing. The plates were then sealed with parafilm tape and shaken gently at room temperature for 30 min. After incubation, ultrasound was applied at an output energy of 0.5 Watt/cm^2 for 60 sec through the bottom of the plate to the cells. The ultrasound was mediated by an ultrasound gel (Aquasonic 100, Parker, N.J.) between transducer and plate. The ultrasound was applied with an ImaRx Sonoporator 100. Immediately after applying ultrasound one GFP chromosome per seeded cell (2×10^5-5×10^5) (prepared in Example 1) was added. The plate was then sealed again and shaken gently for 1 h at room temperature. After the incubation 1 ml medium (CHO—S—SFM 2 with 10% Fetal Calf Serum, 10000 μg/ml Penicillin and 10000 μg/ml Streptomycin Gibco BRL, Paisley, UK) was added to each well and the cells were incubated for 24 h at 37° C. The cells were then washed with medium and 1 ml medium was added and the cells were incubated at 37° for another 24 h. Detection of expressed genes was then assayed by microscopy or detection of the transferred chromosome by FISH analysis.
The negative control was performed in the same way, but with no chromosomes added to the cells.

[3] = test system: Hep-G2 cells; assay: as above; format: cell-based, human; settings: of the cells remaining on the slide
Description: Hep-G2 cells were grown at 37° C., 5% CO2, in DMEM with 4500 mg/l Glucose, with Pyridoxine/HCL, 10% Fetal Calf Serum, 10000 μg/ml Streptomycin and 1000 μg/ml Penicillin. Between 2×10^5 and 5×10^5 cells were plated onto sterile glass slides in a 12 wells plate 24 hours before usage.
Cells were transfected with GFP chromosomes using the procedure of Example 6A except that the CHO—KI medium was replaced with Hep-G2 medium.

[4] = test system: LM(tk−) cells; assay: Thymidine cell synchronization, cell cycle kinetics by flow cytometry; format: cell-based, murine; settings: 16 hours incubation, dose range 1-20 mM tested
Description: To determine the optimum parameters for cell cycle synchronization, thymidine was administered to cell samples in a dose range of 1-20 mM. Samples were analyzed by flow cytometry to determine the cell cycle kinetics of LM(tk−) cell populations at frequent intervals over a 16 hour time period. Optimum synchronization of cells in G0/G1 was achieved by incubating LM(tk−) cells with 10 mM thymidine in serum containing DMEM medium for 16 hours. The thymidine block was released by washing the cells twice in serum-free medium and replacing the medium with complete medium containing 24 μM 2′-deoxycytidine 5′ mono-phosophate (dCMP; Sigma D-7750, St. Louis, Mo.). Cell cycle kinetics were again monitored by flow cytometry upon release of the thymidine block and at frequent intervals over a 16 hour period.

[5] = test system: LM(tk−) cells; assay: Nocodazole cell synchronization, cell cycle kinetics by propidium iodide flow cytometry; format: cell-based, murine
Description: To determine the optimum blocking concentration of nocodazole, nocodazole concentrations were titrated against LM(tk−) cells to generate a dose response. Timing of the optimal blocking concentration (100 ng/ml) was then assessed over 0-1 6 hours using flow cytometry. To determine the cell cycle kinetics of LM(tk−) cell populations at different time points, cells were stained with propidium iodide (PI) at a concentration of […] for 1×10^6 cells and analyzed with a FACS Vantage SE (Becton Dickinson Immunocytometry Systems, San Jose, Calif.) equiped with an argon laser tuned to 488 nm at 200 mW. Whole intact cells were gated on forward scatter (FSC, representing cell size) versus side scatter (SSC, representing internal granularity) and PI emission was detected with a 630/22 filter. A list mode file was generated with a minimum of 20,000 whole intact cells analyzed. The proportion of cells in G0-G1, S and G2-M were documented for each time point. Optimum cell-cycle arrest at the G2/M boundary was achieved by incubating cells with 100 ng/ml nocodazole in serum containing DMEM medium for 6 hours. After 6 hours of nocodazole exposure at 100 ng/ml, approximately 20% of cells were in S phase and 50% of cells were at G2/M. Cell cycle kinetics were again monitored by flow cytometry upon release of the nocodazole block and at frequent intervals over a 16 hour period.

[6] = test system: LM(tk−) cells; assay: ACes transfection at time points after release of nocodazole block, hygromycin selection and FISH; format: cell-based, murine; settings: nocodazole synchronized colonies (20/47), LipofectAMINE PLUS or Superfect; asynchronous control colonies 4% (2/49)
Description: Cells were plated at 7.5×10^5 cells per well of a 6-well plate 24 hours prior to nocodazole treatment. The cells were incubated with nocodazole for 6 hours. After the 6 hour incubation, wells were hosed with medium to dislodge the suspension fraction of cells. Nocodazole containing medium was removed and the wells were washed with fresh medium. The wash medium was aspirated and fresh medium was replaced in the wells. To determine the optimum time point for transfection, different cell samples were transfected at different time points after release of the nocodazole block. The time points were 0, 2, 4, 6, 8, 12, and 16 hours after release of the nocodazole block. Following transfer, the cells were plated and transfectants identified using hygromycin selection. Highest colony formations were achieved when transfection occurred 2-4 hours post nocodazole block. At these time points, cell population distribution included approximately 10% of cells in G0/G1, 20% in S, and 70% in G2/M. Transfectants were analyzed using FISH to determine the quality of the transferred material. […]
Cells were synchronized by nocodazole treatment (100 ng/ml final concentration) for 6 hours prior to transfection. […] Twenty-four hours post-transfection the cells are counted (Coulter counter) and a small fraction are plated for a modified toxicity assay. […]

[7] = 2-4 hours post nocodazole block
[8] = after 6 hours of nocodazole exposure at 100 ng/ml

CCCCCCCCC=CCCCCCCCCC(CCCCCCCCC=CCCCCCCCC)c1cc[n+](C)cc1.[Cl-] (stereo not shown) [Saint-2, 1-methyl-4-(1-octadec-9-enyl-nonadec-10-enylenyl) pyridinium chloride]
remaining cells positive for green fluorescent protein expression [1]: 50%
GFP positive cells, of original population ([2]; after 48 hours): 3%
remaining cells positive for green fluorescent protein expression ([2]; after 48 hours, of the cells remaining on the slide): 10%
cells containing an intact artificial chromosome (FISH) ([2]; after culturing for two weeks): 1.4%
remaining cells positive for green fluorescent protein expression [3]: 80%

Cc1cn([C@H]2C[C@H](O)[C@@H](CO)O2)c(=O)[nH]c1=O [thymidine]
concentration for optimum synchronization of cells in G0/G1 [4]: 10 mM

COC(=O)Nc1nc2ccc(C(=O)c3cccs3)cc2[nH]1 [nocodazole]
cells in G0/G1 [5, 7]: approximately 10%
cells in G2/M [5, 7]: ~70%
cells in S [5, 7]: ~20%
optimal blocking concentration for cell-cycle arrest at the G2/M boundary ([5]; 6 hours incubation, serum containing DMEM): 100 ng/mL
cells at G2/M [5, 8]: ~50%
cells in S phase [5, 8]: approximately 20%
percentage of colonies where at least 50% of the cells had an intact ACes (FISH) [6]: 43%
